Experimental data published in patent US12115157B2, “3-phenoxyazetidin-1-yl-heteroaryl pyrrolidine derivatives and the use thereof as medicament” (Boehringer Ingelheim International GmbH, priority 2021, dated 2024).
pIC50: −log10 of the molar value.

Assays:
human plasma proteins = test: Human plasma protein binding assay (equilibrium dialysis); format: in vitro ADME; conditions: 1 μM, 2 hours, 37° C.
Protocol: Equilibrium dialysis (ED) technique was used to determine the approximate in vitro fractional binding of test compounds to plasma proteins. Dianorm Teflon dialysis cells (micro 0.2) were used. Each dialysis cell consists of a donor and an acceptor chamber, separated by an ultrathin semipermeable membrane with a 5 kDa molecular weight cut-off. Stock solutions for each test compound were prepared in DMSO at 1 mM and serially diluted to obtain a final test concentration of 1 μM. The subsequent dialysis solutions were prepared in plasma (supplemented with NaEDTA as anticoagulant), and aliquots of 200 μL test compound dialysis solution in plasma were dispensed into the donor (plasma) chambers. Aliquots of 200 μL dialysis buffer (100 mM potassium phosphate, pH 7.4) were dispensed into the buffer (acceptor) chamber. Incubation was carried out for 2 hours under rotation at 37° C. for establishing equilibrium.
At the end of the dialysis period, aliquots obtained from donor and acceptor chambers, respectively, were transferred into reaction tubes, spiked with Internal Standard solution and processed for HPLC-MS/MS analysis. Analyte concentrations were quantified in aliquots of samples by HPLC-MS/MS against external calibration curves.
Percent bound was calculated using the formula: % bound=(plasma concentration−buffer concentration/plasma concentration)×100

hERG channel = hERG channel (Homo sapiens (Human), UniProt Q12809); test: hERG channel assay (whole-cell patch clamp); format: cell-based; conditions: HEK293 cells stably transfected with hERG cDNA
Sequence of hERG channel (Q12809 whole entry): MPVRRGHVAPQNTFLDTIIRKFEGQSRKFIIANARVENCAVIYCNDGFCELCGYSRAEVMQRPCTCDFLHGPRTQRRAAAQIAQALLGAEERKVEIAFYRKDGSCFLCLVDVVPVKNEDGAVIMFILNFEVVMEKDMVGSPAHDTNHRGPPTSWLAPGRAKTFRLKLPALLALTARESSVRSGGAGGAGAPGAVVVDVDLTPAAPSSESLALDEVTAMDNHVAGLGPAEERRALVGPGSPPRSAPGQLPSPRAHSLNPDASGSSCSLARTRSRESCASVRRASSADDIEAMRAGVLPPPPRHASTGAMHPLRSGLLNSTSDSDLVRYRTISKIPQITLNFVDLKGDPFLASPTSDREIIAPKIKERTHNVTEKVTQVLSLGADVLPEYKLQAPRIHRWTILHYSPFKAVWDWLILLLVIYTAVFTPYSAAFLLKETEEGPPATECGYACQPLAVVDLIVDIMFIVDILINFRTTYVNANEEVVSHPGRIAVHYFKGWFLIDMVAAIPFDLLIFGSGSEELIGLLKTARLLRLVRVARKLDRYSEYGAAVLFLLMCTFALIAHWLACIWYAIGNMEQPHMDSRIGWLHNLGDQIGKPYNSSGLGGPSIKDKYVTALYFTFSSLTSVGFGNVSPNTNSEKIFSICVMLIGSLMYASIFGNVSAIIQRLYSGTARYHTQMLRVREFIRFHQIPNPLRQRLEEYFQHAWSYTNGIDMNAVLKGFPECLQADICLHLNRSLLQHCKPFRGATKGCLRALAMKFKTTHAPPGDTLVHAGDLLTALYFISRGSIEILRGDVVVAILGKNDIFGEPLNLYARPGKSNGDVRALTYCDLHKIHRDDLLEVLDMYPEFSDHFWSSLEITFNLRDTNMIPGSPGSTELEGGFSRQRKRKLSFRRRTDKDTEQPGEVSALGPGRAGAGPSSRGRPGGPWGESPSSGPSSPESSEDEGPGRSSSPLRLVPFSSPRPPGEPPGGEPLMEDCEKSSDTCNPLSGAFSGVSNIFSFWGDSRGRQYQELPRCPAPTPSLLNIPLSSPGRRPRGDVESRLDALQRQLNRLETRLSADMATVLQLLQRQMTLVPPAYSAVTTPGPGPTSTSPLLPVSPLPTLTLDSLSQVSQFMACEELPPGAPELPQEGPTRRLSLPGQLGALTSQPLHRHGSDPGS
Excerpt: hERG Channel inhibition of compounds of the present invention was investigated as follows:
HEK (human embryonic kidney) 293 cells were stably transfected with hERG cDNA. Cells determined for use in patch clamp experiments were cultivated without antibiotic.
Cells were superfused with a bath solution containing (mM): NaCl (137), KCl (4.0), MgCl2 (1.0), CaCl2(1.8), Glucose (10), HEPES (10), pH 7.4 with NaOH. Patch pipettes were made from borosilicate glass tubing using a pipette and filled with pipette solution containing (mM): K-aspartate (130), MgCl2(5.0), EGTA (5.0), K2ATP (4.0), HEPES (10.0), pH 7.2 with KOH. Resistance of the microelectrodes was typically in the range between 2 MΩ and 5 MΩ.
Membrane currents were recorded using an EPC-10 patch clamp amplifier (HEKA Electronics, Lambrecht, FRG) and PatchMaster software (HEKA). hERG-mediated membrane currents were recorded at typically 28° C., using the whole-cell configuration of the patch-clamp technique. Transfected HEK293 cells were clamped at a holding potential of −60 mV and hERG-mediated inactivating tail currents were elicited using a pulse pattern with fixed amplitudes (activation/inactivation: 40 mV for 2000 ms; recovery: 120 mV for 2 ms; ramp to 40 mV in 2 ms; inactivating tail current: 40 mV for 50 ms) repeated at 15 s intervals. During each inter-pulse interval 4 pulses scaled down by a factor of 0.2 were recorded for a P/n leak subtraction procedure. Rs compensation was employed up to a level that safely allows recording devoid of ringing. The remaining uncompensated Rs was recorded as well as actual temperature and holding current.
The concentrations of the test item were applied sequentially on each of the different cells investigated. A steady state level of baseline current was measured for at least 5 sweeps prior to the application of the first test article concentration. The test item was dissolved in DMSO to yield a stock solution of 1000-fold the highest final concentration. This stock was diluted further in DMSO to stock solutions of 1000-fold the remaining final concentrations. Final dilutions in extracellular buffer were prepared freshly from these stocks by a 1:1000 dilution step each before starting the experiments.
Peak current amplitudes were measured 3 ms after the ramp to +40 mV. For baseline and each concentration, the peak currents of the three last sweeps before application of the next concentration were averaged. Residual currents (I/I0) were calculated for each cell as the fraction of actual average peak current and average baseline peak current. Current inhibition was expressed as […]. Current inhibition for all cells was reported as mean ±SD. If possible, from mean current inhibition data the IC50 was estimated based on the Hill equation using a least squares procedure.

human hepatocytes = test: Metabolic stability in human hepatocytes; format: in vitro ADME; conditions: human hepatocyte suspension, 1 μM; predicted hepatic clearance as percentage of hepatic blood flow
Protocol: The metabolic degradation of a test compound was assayed in a human hepatocyte suspension. After recovery from cryopreservation, human hepatocytes were diluted in Dulbecco's modified eagle medium (supplemented with 3.5 μg glucagon/500 mL, 2.5 mg insulin/500 mL, 3.75 mg hydrocortisone/500 mL, 5% human serum) to obtain a final cell density of 1.0×10^6 cells/mL or 4.0×10^6 cells/mL, depending on the metabolic turnover rate of the test compound.
Following a 30 minutes preincubation in a cell culture incubator (37° C., 10% CO2), test compound solution was spiked into the hepatocyte suspension, resulting in a final test compound concentration of 1 μM and a final DMSO concentration of 0.05% (v/v).
The cell suspension was incubated at 37° C. (cell culture incubator, horizontal shaker) and samples were removed from the incubation after 0, 0.5, 1, 2, 4 and 6 hours. Samples were quenched with acetonitrile (containing internal standard) and pelleted by centrifugation. The supernatant was transferred to a 96-deepwell plate, and prepared for analysis of decline of parent compound by HPLC-MS/MS.
The percentage of remaining test compound was calculated using the peak area ratio (test compound/internal standard) of each incubation time point relative to the time point 0 peak area ratio. The log-transformed data were plotted versus incubation time, and the absolute value of the slope obtained by linear regression analysis was used to estimate in vitro half-life (T1/2).
In vitro intrinsic clearance (CLint) was calculated from in vitro T1/2 and scaled to whole liver using a hepatocellularity of 120×10^6 cells/g liver, a human liver per body weight of 25.7 g liver/kg as well as in vitro incubation parameters, applying the following equation: CL_[…]_IN VIVO[mL/min/kg]=(CL_[…][μL/min/10^6 cells]×hepatocellularity[10^6 cells/g liver]×liver factor[g/kg body weight])/1000
Hepatic in vivo blood clearance (CL) was predicted according to the well-stirred liver model considering an average liver blood flow (QH) of 20.7 mL/min/kg: CL[mL/min/kg]=CL_[…]_IN VIVO[mL/min/kg]×hepatic blood flow[mL/min/kg]/(CL_[…]_IN VIVO[mL/min/kg]+hepatic blood flow[mL/min/kg])
Results were expressed as percentage of hepatic blood flow: QH[%]=CL[mL/min/kg]/hepatic blood flow[mL/min/kg])

[1] = tested on: primary human hepatocytes; test: In vitro metabolite profiling in primary human hepatocytes with or without proadifen; format: in vitro ADME; conditions: for % Parent of drug-related material: incubations in primary human hepatocytes, 1 μM test compound; for Contribution of amide hydrolysis to metabolism (incl. secondary metabolites): primary human hepatocytes, abundance of deacetylated metabolites relative to all metabolites
Protocol: In vitro metabolite profiling to evaluate the involvement of non-CYP-enzyme-mediated metabolic pathways such as hydrolysis in addition to CYP-mediated pathways is based on the semiquantitative analysis of the formation of prototypic metabolites in incubations with liver microsomes (with and without beta-nicotinamide adenine dinucleotide phosphate, NADPH), primary human hepatocytes (with and without the pan-CYP inhibitor proadifen) and recombinant CYP enzymes.
An additional measure to identify CYP-independent metabolic pathways is the use of the pan-CYP inhibitor proadifen in incubations of the test compound with human hepatocytes. In presence of proadifen, the CYP-related pathways are inhibited and metabolites would primarily be generated via non-CYP pathways.
The involvement of non-CYP-enzymes in metabolic transformations of the test compound was further investigated using primary human hepatocytes in suspension in presence or absence of the pan-CYP inhibitor proadifen (50 μM final incubation concentration). After recovery from cryopreservation, human hepatocytes were incubated in Dulbecco's modified eagle medium supplemented with 3.5 μg glucagon/500 ml, 2.5 mg insulin/500 ml and 3.75 mg/500 ml hydrocortisone containing 5% (v/v) human serum.
Following a 30 min preincubation in a cell culture incubator (37° C., 10% CO2) with or without 50 μM proadifen, test compound solution was spiked into the hepatocyte suspension to obtain a final cell density of 1.0*10^6 to 4.0*10^6 cells/ml (depending on the metabolic turnover rate of the compound observed with primary human hepatocytes), a final test compound concentration of 1 μM, and a final DMSO concentration of 0.05% (v/v).
The cells were incubated for six hours (incubator, horizontal shaker) and samples were removed from the incubation after 0, 0.5, 1, 2, 4 or 6 hours, depending on the metabolic turnover rate. Samples were quenched with acetonitrile and pelleted by centrifugation. The supernatant was transferred to a 96-deepwell plate, evaporated under nitrogen, and resuspended prior to bioanalysis by liquid chromatography-high resolution mass spectrometry for identification of putative metabolites.
The contribution of hydrolysis was calculated based on the abundance of the respective deacetylated metabolite(s) of the compounds of the present invention relative to all metabolites observed in incubations with human hepatocytes.

Row | Hu PPB (human plasma proteins) | Human HepStab (human hepatocytes) | % Parent of drug-related material [1] | Contribution of amide hydrolysis to metabolism (incl. secondary metabolites) [1] | SMILES | pIC50 (hERG channel)
1 | 79.7 % bound | 9.2 % QH | 84% | 19% | CC(=O)N1C[C@H](NC(=O)c2nccnc2N2CC(Oc3ccc(F)c(F)c3)C2)C(F)(F)C1 [Example 8b] | < 5.00
2 | 92.8 % bound | <4.1 % QH | 70% | 25% | CC(=O)N1C[C@H](NC(=O)c2nsnc2N2CC(Oc3ccc(F)c(F)c3)C2)C(F)(F)C1 [Example 13b] | < 5.00
